Laboratory results taken from patent publication US7888379B2, “Thiazole derivatives and use thereof” (Merck Serono SA, priority 2005, dated 2011).

Tests used:
[1] = molecular target: Human recombinant GST-PI3Kγ (Homo sapiens, UniProt P48736); experiment: High Throughput PI3K Lipid Kinase Assay (SPA, neomycin-coated beads); assay type: biochemical
Source text: a) High Throughput PI3K Lipid Kinase Assay (Binding Assay):
The efficacy of compounds of the invention in inhibiting the PI3K induced-lipid phosphorylation may be tested in the following binding assay
The assay combines the scintillation proximity assay technology (SPA, Amersham) with the capacity of neomycin (a polycationic antibiotic) to bind phospholipids with high affinity and specificity. The Scintillation Proximity Assay is based on the properties of weakly emitting isotopes (such as ^3H, ^125I, ^33P). Coating SPA beads with neomycin allows the detection of phosphorylated lipid substrates after incubation with recombinant PI3K and radioactive ATP in the same well, by capturing the radioactive phospholipids to the SPA beads through their specific binding to neomycin.
To a 384 wells MTP containing 5 μl of the test compound of Formula (I) (solubilized in 6% DMSO; to yield a concentration of 100, 30, 10, 3, 1, 0.3, 0.1, 0.03, 0.01, 01 μM of the test compound), the following assay components are added. 1) 5 μl (58 ng) of Human recombinant GST-PI3Kγ (in Hepes 40 mM, pH 7.4, DTT 1 mM and ethylenglycol 5%) 2) 10 μl of lipid micelles and 3) 10 μl of Kinase buffer ([^33P]γ-ATP 45 μM/60 nCi, MgCl2 30 mM, DTT 1 mM, β-Glycerophosphate 1 mM, Na3VO4 100 μM, Na Cholate 0.3%, in Hepes 40 mM, pH 7.4). After incubation at room temperature for 180 minutes, with gentle agitation, the reaction is stopped by addition of 60 μl of a solution containing 100 μg of neomycin-coated PVT SPA beads in PBS containing ATP 10 mM and EDTA 5 mM. The assay is further incubated at room temperature for 60 minutes with gentle agitation to allow binding of phospholipids to neomycin-SPA beads. After precipitation of the neomycin-coated PVT SPA beads for 5 minutes at 1500×g, radioactive PtdIns(3)P is quantified by scintillation counting in a Wallac MicroBeta™ plate counter.
The values indicated in Table I below refer to the IC50 (nM) with respect to PI3Kγ, i.e. the amount necessary to achieve 50% inhibition of said target. Said values show a considerable inhibitory potency of thiazole compounds with regard to PI3Kγ.

Akt/PKB phosphorylation = experiment: Cell based ELISA to monitor PI3K inhibition: Akt/PKB phosphorylation in Raw 264-7 macrophages after Complement 5a stimulation; details: Mus musculus, RAW264.7, phospho Serine 473 Akt, read-out: Cell Assay (P-Akt, Elisa) IC50
Experimental: b) Cell Based ELISA to Monitor PI3K Inhibition:
The efficacy of compounds of the invention in inhibiting the PI3K induced Akt/PKB phosphorylation may be tested in the following cell based assay.
Measurement of Akt/PKB phosphorylation in macrophages after stimulation with Complement 5a: Raw 264: Raw 264-7 macrophages (cultured in DMEM-F12 medium containing 10% Fetal Calf serum and antibiotics) are plated at 20'000 cells/well in a 96 MTP 24 h before cell stimulation. Prior to the stimulation with […] of Complement 5a during 5 minutes, Cells are serum starved for 2 h, and pretreated with inhibitors for 20 minutes. After stimulation cells are fixed in 4% formaldehyde for 20 minutes and washed 3 times in PBS containing 1% Triton X-100 (PBS/Triton). […] Next, phosphorylated Akt/PKB is detected by an overnight incubation at 4° C. with primary antibody (anti phospho Serine 473 Akt IHC, Cell Signaling) diluted 800-fold in PBS/Triton, containing 5% bovine serum albumin (BSA). After 3 washes in PBS/Triton, cells are incubated for 60 minutes with a peroxidase conjugated goat-anti-rabbit secondary antibody (1/400 dilution in PBS/Triton, containing 5% BSA), washed 3 times in PBS/Triton, and 2 times in PBS and further incubated in 100 μl of luminescent substrate reagent solution (Pierce) for 2 minutes, followed by the reading (1 s/well). […]

Neutrophils recruitment = experiment: Thioglycollate-induced peritoneal cavity cell recruitment model; assay type: in vivo; details: at 10 mg/kg after 4 hours, oral, female C3H mice, thioglycollate i.p.
Experimental: Thioglycollate-induced Peritoneal Cavity Cell Recruitment Model
The in vivo efficacy of compounds of the invention in inhibiting the migration of leukocytes upon intraperitoneal challenge of thioglycollate may be tested with the following assay.
8-10 weeks old female C3H mice are fasted during 18 hours. 15 minutes prior the intraperitoneal injection of thioglycollate (1.5%, 40 ml/kg), the mice are treated orally with Thiazoles of Formula (I). Control mice receive CMC/Tween as vehicle (10 ml/kg). The mice are then sacrificed by CO2 inhalation and the peritoneal cavity is washed two times with 5 ml of ice-cold PBS/1 mM EDTA. The ravages are done 4 hours or 48 hours after thioglycollate challenge to evaluate neutrophils or macrophages recruitment, respectively. The white blood cells (neutrophils, lymphocytes or macrophages) are counted using a Beckman Coulter® A°T 5diff™.
Dexamethasone is used as reference drug.

Sequence of Human recombinant GST-PI3Kγ (P48736 whole entry): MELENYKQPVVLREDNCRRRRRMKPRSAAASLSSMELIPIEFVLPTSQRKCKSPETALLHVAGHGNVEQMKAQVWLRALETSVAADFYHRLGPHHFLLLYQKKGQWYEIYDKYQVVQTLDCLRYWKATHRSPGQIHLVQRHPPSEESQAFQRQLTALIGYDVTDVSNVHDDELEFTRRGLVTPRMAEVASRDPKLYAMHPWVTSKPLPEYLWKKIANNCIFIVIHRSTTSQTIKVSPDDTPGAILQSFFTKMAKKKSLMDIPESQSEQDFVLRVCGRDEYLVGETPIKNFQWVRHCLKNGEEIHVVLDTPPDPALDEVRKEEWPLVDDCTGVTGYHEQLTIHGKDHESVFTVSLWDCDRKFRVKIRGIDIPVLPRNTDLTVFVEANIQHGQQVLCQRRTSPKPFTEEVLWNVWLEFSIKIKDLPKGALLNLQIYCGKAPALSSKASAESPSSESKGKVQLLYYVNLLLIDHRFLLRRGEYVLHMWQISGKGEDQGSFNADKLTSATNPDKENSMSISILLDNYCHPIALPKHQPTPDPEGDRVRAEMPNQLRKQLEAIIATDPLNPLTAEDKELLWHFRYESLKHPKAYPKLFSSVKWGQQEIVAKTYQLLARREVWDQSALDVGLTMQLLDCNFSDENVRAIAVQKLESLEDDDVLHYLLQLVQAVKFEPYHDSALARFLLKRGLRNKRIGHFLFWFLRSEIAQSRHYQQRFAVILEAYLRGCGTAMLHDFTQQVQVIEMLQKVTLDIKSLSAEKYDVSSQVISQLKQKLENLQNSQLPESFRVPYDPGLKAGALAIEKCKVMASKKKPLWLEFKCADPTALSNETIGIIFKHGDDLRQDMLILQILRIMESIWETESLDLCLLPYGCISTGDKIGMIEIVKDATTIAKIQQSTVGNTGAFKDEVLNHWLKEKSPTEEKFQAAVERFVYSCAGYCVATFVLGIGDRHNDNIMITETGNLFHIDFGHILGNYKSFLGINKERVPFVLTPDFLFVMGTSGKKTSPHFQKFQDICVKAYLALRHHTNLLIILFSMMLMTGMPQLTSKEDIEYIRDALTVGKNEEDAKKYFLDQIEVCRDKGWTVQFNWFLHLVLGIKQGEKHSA

Compound	IC50 [1] [nM]	IC50 (Akt/PKB phosphorylation) [nM]	% of inhibition of Neutrophils recruitment (Neutrophils recruitment) [%]
CC(=O)Nc1nc(C)c(-c2ccc(C=O)s2)s1 [Example 1, N-[5-(5-formyl-2-thienyl)-4-methyl-1,3-thiazol-2-yl]acetamide]	215		
CC(=O)Nc1nc(C)c(-c2ccc(C(=O)N3CCOCC3)s2)s1 [Example 5]	249		
CC(=O)Nc1nc(C)c(-c2ccc(CO)s2)s1 [Example 3, N-[5-[5-(hydroxymethyl)-2-thienyl]-4-methyl-1,3-thiazol-2-yl]acetamide]	219		

Continued, in another order:

IC50 [1] [nM]	IC50 (Akt/PKB phosphorylation) [nM]	Compound	% of inhibition of Neutrophils recruitment (Neutrophils recruitment) [%]
	322	C=CCNS(=O)(=O)c1ccc(-c2sc(NC(C)=O)nc2C)s1 [Example 12, N-(5-[5-{(allylamino)sulfonyl]-2-thienyl}-4-methyl-1,3-thiazol-2-yl) acetamide]	38
1100		CC(=O)Nc1nc(C)c(-c2ccc(C(=O)N3CCCC(O)C3)s2)s1 (stereo not drawn) [Example 8, N-(5-{5-[(3-hydroxypiperidin-1-yl)carbonyl]-2-thienyl}-4-methyl-1,3-thiazol-2-yl)acetamide]	
